# Measurements published in ChEMBL document CHEMBL4396867, “Identification of 5-Substituted 2-Acylaminothiazoles That Activate Tat-Mediated Transcription in HIV-1 Latency Models” (J Med Chem, 2019).
# Columns and labels:
# [1] = Aqueous solubility of the compound in phosphate buffer at pH 6.5 by nephelometry; type: physicochemical
# [2] = Aqueous solubility of the compound in 0.01M HCl at pH 2 by nephelometry; type: physicochemical
Structure (SMILES),solubility kinetic [1],solubility kinetic [2]
O=C(CCCOc1ccccc1)Nc1ncc(Cl)s1,< 1.2 µM,< 1.2 µM
Cc1cnc(NC(=O)CCCOc2cccc(C#N)c2)s1,< 1.1 µM,< 1.1 µM
N#Cc1cnc(NC(=O)CCCOc2cccc(C(F)(F)F)c2)s1,< 1.6 µM,< 1.6 µM
Cc1cnc(NC(=O)CCCOc2cccc(Cl)c2)s1,< 1.1 µM,< 1.1 µM
N#Cc1cnc(NC(=O)CCCOc2ccccc2)s1,1.1 to 2.2 µM,1.1 to 2.2 µM
Cc1cnc(NC(=O)CCCOc2cccc(C(F)(F)F)c2)s1,< 1.1 µM,< 1.1 µM
Cc1cnc(NC(=O)CCCOc2cncc(Cl)c2)s1,3.1 to 6.3 µM,1.6 to 3.1 µM
Cc1cnc(NC(=O)NCCOc2ccc(Cl)c(C)c2)s1,< 1.6 µM,1.6 to 3.1 µM
O=C(CCCOc1cccc(C(F)(F)F)c1)Nc1ncc(C(F)(F)F)s1,< 1.6 µM,< 1.6 µM
CC(C)c1cnc(NC(=O)CCCOc2ccccc2)s1,< 1.2 µM,< 1.2 µM
Cc1cnc(NC(=O)CCCOc2ccccc2)s1,< 1.1 µM,1.1 to 2.3 µM
Cc1cnc(NC(=O)CCCOc2cccc(Cl)n2)s1,< 1.2 µM,< 1.2 µM
N#Cc1cnc(NC(=O)CCCOc2cccc(Cl)c2)s1,< 1.6 µM,< 1.6 µM
